Experimental data reported in patent US10426718B2, “Compositions and methods for treating hair loss and delaying aging of skin” (Phyto Tech Corp., priority 2012, dated 2019).

Key:
Format in all cases: in vivo, mouse
C57BL/6J male mice [1] = experiment: induction of anagen on depilated dorsal skin; settings: DHM 10% (w/w-%), 1 ml topical daily, day 8; vs vehicle control; similar to minoxidil 2%; P<0.05, N=10
From the text: (§1) A total of 40 seven-week-old, wild type C57BL/6J male mice were used for the study. The mice were housed individually (one mouse/cage). The mice were randomly assigned to one of four treatment groups that contained 10 mice per group. The treatment groups included a vehicle control, a positive control (minoxidil 2%), DHM 5% (w/w-%), and DHM 10% (w/w-%).
(§2) The vehicle used for all treatment groups was a mixture of alcohol denat., propanediol, water, ethylhexylglycerin, and phenoxyethanol. The DHM used in the DHM treatment groups has a purity of 98%.
(§3) The DHM 10% treatment contained the following percentage concentrations (w/w-%): 20% alcohol denat., 10% DHM, 50% propanediol, 19.5% water, and 0.5% ethylhexylglycerin and phenoxyethanol.
(§4) The hair of the dorsal skin (2×5 cm) from every mouse was removed by clipping and topical application of calcium thioglycolate to depilate the clipped area. The next day, mice without visible wounds were used for the study. The mice received a daily topical application of 1 ml of their respective treatment per day. Hair regrowth was quantified by analyzing photographs that were taken of each mouse every 4 days after topical treatment for a total of 21 days (day 0, 4, 8, 12, 16, and 21). For each mouse, an area of 3 cm^2 of the back was analyzed. All experiments were continued for 21 days. […]

C57BL/6J male mice [2] = experiment: hair regrowth on depilated dorsal skin; settings: DHM 10% (w/w-%), 1 ml topical daily, day 12; vs vehicle control; similar to minoxidil 2%; P<0.05, N=10
From the text: as §1, §2, §3, §4

[3] = test system: chronically stressed C57BL/6J mice; experiment: treatment of stress-induced hair loss (restraint-stressed mice), hair regrowth; settings: 1 μM DHM in 1 oz. Vaseline, topical once per day for six weeks, vs Vaseline alone
Description: (§5) The effectiveness of DHM in the treatment of stress-induced hair loss was tested using two groups of eight week old C57BL/6J mice. Chronic stress was induced in the first group (n=20) by restraining each mouse in the test group for 3 hours per day for 21 consecutive days in a modified 50 ml clear polystyrene conical centrifuge tube with multiple air holes for ventilation. The second group of mice (n=10) remained undisturbed in their home cages (Fernandex-Vozmediano et al. (1994) “Contact dermatitis due to topical spironolactone.” Contact Dermatitis 30: 118-9; Tresch, et al. (2011) “T cell-mediated acute localized exanthematous pustulosis caused by finasteride.” J Allergy Clin Immunol 129: 589-94). The completion of the 21 day stress-induction cycle was followed by a two day withdrawal. […] The rodents' stress levels were also assessed via elevated plus maze (EPM) and open field test (OFT). […] Within the context of EPM, anxiety-related behavior was measured by the degree to which a mouse avoided the unenclosed arms of the maze. […] In OFT, each mouse was placed on an empty table surrounded by walls, and the mouse's movements and the time it spent moving were monitored. Within the context of OFT, anxiety-related behavior was measured by the degree to which a mouse avoided the open center and stayed close to the walls. […]

[4] = test system: chronically stressed C57BL/6J mice; experiment: open field test (OFT) behavioral anxiety test in chronically stressed mice; settings: 1 μM DHM in Vaseline, topical once per day for six weeks
Description: as §5

c57BL/6J mice = experiment: topical toxicity / allergic reaction test, Vaseline mixed with DHM on shaved skin; settings: Vaseline mixed with 1 g DHM, six weeks
From the text: To determine whether topical application of DHM is toxic or causes allergic reaction, Vaseline mixed with 1 g DHM was applied to the shaved skin of c57BL/6J mice for six weeks.

[5] = test system: chronically stressed C57BL/6J mice; experiment: elevated plus maze (EPM) behavioral anxiety test in chronically stressed mice; settings: for behavioral anxiety (EPM and OFT together): 1 μM DHM, daily topical treatment for 6 weeks, chronically stressed mice
Description: The effectiveness of DHM in the treatment of stress-induced hair loss was tested using two groups of eight week old C57BL/6J mice. Chronic stress was induced in the first group (n=20) by restraining each mouse in the test group for 3 hours per day for 21 consecutive days in a modified 50 ml clear polystyrene conical centrifuge tube with multiple air holes for ventilation. The second group of mice (n=10) remained undisturbed in their home cages (Fernandex-Vozmediano et al. (1994) “Contact dermatitis due to topical spironolactone.” Contact Dermatitis 30: 118-9; Tresch, et al. (2011) “T cell-mediated acute localized exanthematous pustulosis caused by finasteride.” J Allergy Clin Immunol 129: 589-94). The completion of the 21 day stress-induction cycle was followed by a two day withdrawal. […] The rodents' stress levels were also assessed via elevated plus maze (EPM) and open field test (OFT). EPM and OFT are behavioral tests that are commonly used to assess anxiety by measuring a mouse's locomotor activity and willingness to explore. When anxious, rodents naturally prefer enclosed dark spaces to opened brightly lit spaces. In the EPM test, individual mice from each group were placed on a plus-shaped apparatus that was raised from the floor and had two open and two enclosed arms. Within the context of EPM, anxiety-related behavior was measured by the degree to which a mouse avoided the unenclosed arms of the maze. As shown in FIG. 2A and FIG. 2B, the unstressed mice explored the open arms, whereas the chronically stressed mice avoided the open arms and restricted their movements to the closed arms. In OFT, each mouse was placed on an empty table surrounded by walls, and the mouse's movements and the time it spent moving were monitored. Within the context of OFT, anxiety-related behavior was measured by the degree to which a mouse avoided the open center and stayed close to the walls. As shown in FIG. 2C and FIG. 2D, the unstressed mice explored center of the table, whereas the chronically stressed mice avoided the center and remained in the corners. […]

**Q.** With `O=C1c2c(O)cc(O)cc2O[C@H](c2cc(O)c(O)c(O)c2)[C@H]1O` [DHM, (2R,3R)-3,5,7-trihydroxy-2-(3,4,5-trihydroxyphenyl)-2,3-dihydrochromen-4-one] as the compound, how does the “induction of anagen (grading 0-3)” value (C57BL/6J male mice [1]) read?
**A.** The value was “significantly different to treatment with the vehicle control”.

**Q.** And the “hair regrowth (grading 0-3)” value (C57BL/6J male mice [2])?
**A.** The value was “statistically significant increase in hair regrowth”.

**Q.** And the “hair regrowth on bald spots” value [3]?
**A.** Its value is “hair regrowth was observed”.

**Q.** What about the “hair regrowth on bald spots” value ([3]; listed as dihydromyricetin) of the same compound?
**A.** Its value is “regrowth of hair”.

**Q.** And the “locomotor activity in OFT” value [4]?
**A.** Its value is “significantly increased locomotor activity”.

**Q.** And the “running distance in OFT” value [4]?
**A.** Its value is “longer running distance comparable to those of unstressed mice”.

**Q.** What about the “changes in body weight” value (c57BL/6J mice) of the same compound?
**A.** Its value is “did not exhibit any changes”.

**Q.** What about the “changes in metabolic rate” value (c57BL/6J mice) of the same compound?
**A.** Its value is “did not exhibit any changes”.

**Q.** What about the “rash, redness, or other responses associated with an allergic reaction” value (c57BL/6J mice) of the same compound?
**A.** The value was “did not exhibit rash, redness, or other responses associated with an allergic reaction”.

**Q.** What about the “willingness to explore the open arms of the EPM apparatus” value ([5]; 1 μM DHM in Vaseline, topical once per day for six weeks, compared with unstressed control mice) of the same compound?
**A.** Its value is “as willing to explore the open arms of the EPM apparatus as the unstressed control mice”.

**Q.** What about the “behavioral anxiety (EPM and OFT together)” value [5] of the same compound?
**A.** Its value is “reversed”.

**Q.** What about the “behavioral anxiety (EPM and OFT together)” value ([5]; listed as dihydromyricetin) of the same compound?
**A.** The value was “behavioral anxiety was reduced”.
